One assay concerns S. aureus. Description: Molecular phenotypic antimicrobial susceptibility test with direct PCR (no extraction DNA purification step). Type of assay: cell-based, Staphylococcus aureus. The following applies: for Ct at Sensitive Breakpoint: S. aureus isolate NR-46412 HIP13170, Ct at control (average) 18.824; for Molecular Antimicrobial Susceptibility Result: S. aureus isolate NR-46412 HIP13170, at sensitive breakpoint. The method, then: Detection of Molecular Phenotypic Antimicrobial Susceptibility. Disclosed herein are the methods for the detection of phenotypic antimicrobial susceptibility via molecular methods. The present invention describes how a specimen 100 with a known microbial load is incubated and then exposed to a panel of antimicrobial agents to determine sensitivity (prevention of growth) or resistance (allowance of growth) to the specific antimicrobial agents tested utilizing molecular methods.
Sample Collection. Specimens 100 are collected from patients using sterile collection processes that are employed in routine clinical care. Specimens are transported to the testing facility in boric acid preservative.
Preparation of the Specimens for Testing. […] The process for pathogen isolation includes steps of harvesting the pathogen (e.g., via centrifugation), isolating pathogen DNA via a DNA isolation and/or purification kit, and performing PCR on the pathogen DNA via PCR components (e.g., primers, enzymes, buffers) as would be known to the skilled artisan. […] This aliquot is used for antimicrobial susceptibility testing if indicated based on the pathogen detection results. […] Specimens 100 with lower pathogen loads could also be utilized in the antibiotic susceptibility phase of testing with or without a longer incubation period.
Preparation of Antimicrobial Susceptibility Testing Plates. Antimicrobial solutions are prepared at known concentrations. The specific antimicrobials and their concentrations are selected based on the pathogen of interest and the described antimicrobial resistance breakpoints for that specimen pathogen and antimicrobial combination. These antimicrobials have been selected based on those commonly utilized by healthcare providers in routine clinical care for the specific type of suspected infection. The number and types of antimicrobials utilized can be customized based on the infection source, pathogen detected, patient-specific factors such as allergies or other health conditions (e.g., chronic kidney disease or concurrent medication use), or healthcare provider preferences such as antimicrobial availability or cost.
The antimicrobial solutions are prepared in liquid culture media (such as Muller Hinton Broth) to achieve the desired antimicrobial concentration and are then stored at −80° C. until use. For a given specimen, each antimicrobial is tested at a single or multiple antimicrobial concentration(s) which is its established breakpoints for sensitivity. The antimicrobial solutions are prepared and plated out for each specific pathogen. […] This allows for evaluation of pathogen load when no antimicrobial is present.
Specimen Exposure to Antimicrobial Agents. The 1 mL aliquot of the specimen 100 previously mixed with culture media and incubated is obtained. Using optical density measurements as a guide, the specimen 100 is diluted to 0.5 McFarland.
Antimicrobial exposure plates are typically placed into an incubator for 12-16 hours.
Nucleic Acid Amplification of Antimicrobial Agent Exposed Pathogens. The antimicrobial exposure plate is removed after the period of incubation. The specimen then undergoes a purification or lysis step. For example, the specimen may undergo a purification step (e.g., magnetic bead-based or other separation protocol to isolate genetic material). In another example, the specimen may undergo a cell lysis step. For example, buffer (e.g., lysis buffer) may be added and incubated in the thermal cycler for preparation for direct PCR. Next, the specimen may undergo a polymerase chain reaction (PCR) testing protocol, whereby a semi-quantitative PCR method is utilized. This may be completed either with or without a specific extraction protocol step. The pathogens can be individually targeted and detected, or a universal genetic sequence can be utilized to detect the antimicrobial susceptibility of the specimen as a whole.

A further assay has as its system E. coli. In words: Molecular phenotypic antimicrobial susceptibility test, specimen with two detected pathogens incubated together without isolation. Type of assay: cell-based, Escherichia coli. The following applies: E. coli in specimen with two detected pathogens (E. coli and M. morganii) incubated together; for Ct of Sensitive Breakpoint: Ct of controls (average) 15.93; for Molecular Antimicrobial Susceptibility Result: at sensitive breakpoint. In a few lines:
(§1)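 Susceptibility read molecularly: growth means resistance, prevented growth sensitivity, versus antibiotic-free control wells. Co-detected pathogens stay together without isolation; after 4-6 h preincubation and PCR identification (threshold >10,000 cells/mL), inoculum adjusted to 0.5 McFarland and placed on thawed plates with each drug at its breakpoint concentration(s).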

The test system of assay [1] is pathogens of clinical samples. In words: Molecular phenotypic antimicrobial susceptibility test of clinical samples, extraction DNA purification step prior to PCR (Table 6). Type of assay: cell-based. In outline:
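Semi-quantitative PCR read-out: growth was taken as resistance and its absence as sensitivity, with DNA either purified (e.g. bead-based) or amplified directly from lysed sample without extraction. Before PCR, 0.5 McFarland dilutions of incubated clinical specimens were held 12-16 hours with breakpoint-level antimicrobials in culture media, beside a drug-free control.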

The test system of a further assay is M. morganii. Description: Molecular phenotypic antimicrobial susceptibility test, specimen with two detected pathogens incubated together without isolation. Type of assay: cell-based, Morganella morganii. The following applies: M. morganii in specimen with two detected pathogens (E. coli and M. morganii) incubated together; for Ct of Sensitive Breakpoint: Ct of controls (average) 19.99; for Molecular Antimicrobial Susceptibility Result: at sensitive breakpoint. In outline:
as §1

The mark [2] stands for this setting: S. aureus, clinical sample of r85-r92.

For the compound `CO[C@@]1(NC(=O)Cc2cccs2)C(=O)N2C(C(=O)O)=C(COC(N)=O)CS[C@@H]21` [Cefoxitin], the “Ct at Sensitive Breakpoint” value with S. aureus is listed as 14.322. Also, the “Molecular Antimicrobial Susceptibility Result” value is recorded as “Resistant” with S. aureus, “Sensitive (Antimicrobial wells with pathogen load detected below the control wells (typically >2 cycle thresholds later) may be reported as Sensitive)” in the assay on E. coli and “Sensitive (Antimicrobial wells with pathogen load detected below the control wells (typically >2 cycle thresholds later) may be reported as Sensitive)” in the assay on M. morganii. In addition, the “Ct of Sensitive Breakpoint” value amounted to 18.30 in the assay with E. coli and 23.01 with M. morganii. Moreover, the “Molecular Antibiotic Susceptibility Result” value in assay [1] (E. coli, clinical sample of r10-r24) is recorded as “Sensitive (Antimicrobial wells with pathogen load detected below the control wells (typically >2 cycle thresholds later) may be reported as Sensitive)”; in assay [1] (E. coli, clinical sample of r158-r172) it was “Sensitive (Antimicrobial wells with pathogen load detected below the control wells (typically >2 cycle thresholds later) may be reported as Sensitive)”; in assay [1] (K. aerogenes, clinical sample of r136-r150), “Resistant”; in assay [1] (K. pneumoniae, clinical sample of r121-r135) it was “Sensitive (Antimicrobial wells with pathogen load detected below the control wells (typically >2 cycle thresholds later) may be reported as Sensitive)”; in assay [1] (M. morganii, clinical sample of r55-r69), “Sensitive (Antimicrobial wells with pathogen load detected below the control wells (typically >2 cycle thresholds later) may be reported as Sensitive)”; in assay [1] (M. morganii, clinical sample of r70-r84), “Sensitive (Antimicrobial wells with pathogen load detected below the control wells (typically >2 cycle thresholds later) may be reported as Sensitive)”. Further, the “Molecular Antibiotic Susceptibility Result” value in assay [1] (P. mirabilis, clinical sample of r25-r39) is “Sensitive (Antimicrobial wells with pathogen load detected below the control wells (typically >2 cycle thresholds later) may be reported as Sensitive)”; in assay [1] (P. mirabilis, clinical sample of r40-r54), “Sensitive (Antimicrobial wells with pathogen load detected below the control wells (typically >2 cycle thresholds later) may be reported as Sensitive)”; in assay [1] (setting [2]), “Resistant”. The Ct is on record as 26.364 in assay [1] (E. coli, clinical sample of r10-r24, Ct Control Avg 18.112); 31.631 in assay [1] (E. coli, clinical sample of r158-r172, Ct Control Avg 20.146); 20.635 in assay [1] (K. aerogenes, clinical sample of r136-r150, Ct Control Avg 19.994); 32.55 in assay [1] (K. pneumoniae, clinical sample of r121-r135, Ct Control Avg 24.272); 37.168 in assay [1] (M. morganii, clinical sample of r55-r69, Ct Control Avg 28.86); 35.243 in assay [1] (M. morganii, clinical sample of r70-r84, Ct Control Avg 27.053). The Ct in assay [1] (P. mirabilis, clinical sample of r25-r39, Ct Control Avg 26.064) was 29.443; in assay [1] (P. mirabilis, clinical sample of r40-r54, Ct Control Avg 26.987), 30.603; in assay [1] (S. aureus, clinical sample of r85-r92, Ct Control Avg 24.32) it was 15.037.

`O=C(O)c1cn(C2CC2)c2cc(N3CCNCC3)c(F)cc2c1=O` [Ciprofloxacin]: in the assay on S. aureus, the “Ct at Sensitive Breakpoint” value worked out at 18.586 and the “Molecular Antimicrobial Susceptibility Result” value is reported as “Resistant”. Moreover, in the assay on E. coli, the “Ct of Sensitive Breakpoint” value turned out to be 31.81 and the “Molecular Antimicrobial Susceptibility Result” value was “Sensitive (Antimicrobial wells with pathogen load detected below the control wells (typically >2 cycle thresholds later) may be reported as Sensitive)”. For the same compound, in the assay on M. morganii, the “Ct of Sensitive Breakpoint” value amounted to 34.71 and the “Molecular Antimicrobial Susceptibility Result” value is recorded as “Sensitive (Antimicrobial wells with pathogen load detected below the control wells (typically >2 cycle thresholds later) may be reported as Sensitive)”.

Take `CN[C@H](CC(C)C)C(=O)N[C@H]1C(=O)N[C@@H](CC(N)=O)C(=O)N[C@H]2C(=O)N[C@H]3C(=O)N[C@H](C(=O)N[C@H](C(=O)O)c4cc(O)cc(O)c4-c4cc3ccc4O)[C@H](O)c3ccc(c(Cl)c3)Oc3cc2cc(c3O[C@@H]2O[C@H](CO)[C@@H](O)[C@H](O)[C@H]2O[C@H]2C[C@](C)(N)[C@H](O)[C@H](C)O2)Oc2ccc(cc2Cl)[C@H]1O` [Vancomycin]: the “Ct at Sensitive Breakpoint” value in the assay with S. aureus stood at 17.078. The “Molecular Antimicrobial Susceptibility Result” value in the assay with S. aureus is listed as “Resistant”. Besides, the “Molecular Antibiotic Susceptibility Result” value was “Sensitive (Antimicrobial wells with pathogen load detected below the control wells (typically >2 cycle thresholds later) may be reported as Sensitive)” in assay [1] (E. faecalis, clinical sample of r93-r99); “sensitive” in assay [1] (E. faecalis, clinical sample of r100-r106); “sensitive” in assay [1] (E. faecalis, clinical sample of r107-r113); “Sensitive (Antimicrobial wells with pathogen load detected below the control wells (typically >2 cycle thresholds later) may be reported as Sensitive)” in assay [1] (E. faecalis, clinical sample of r114-r120); “Sensitive (Antimicrobial wells with pathogen load detected below the control wells (typically >2 cycle thresholds later) may be reported as Sensitive)” in assay [1] (E. faecalis, clinical sample of r151-r157); “Resistant” in assay [1] (setting [2]). Also, the Ct in assay [1] (E. faecalis, clinical sample of r100-r106, Ct Control Avg 23.073) is on record as 37.981; in assay [1] (E. faecalis, clinical sample of r107-r113, Ct Control Avg 22.144), 32.184; in assay [1] (E. faecalis, clinical sample of r114-r120, Ct Control Avg 20.822), 34.122; in assay [1] (E. faecalis, clinical sample of r151-r157, Ct Control Avg 20.56) it was “Undet”.
